The values below come from patent US20070025997A1, “Use of biomolecular targets in the treatment and visualization of brain tumors” (priority 2002, published 2007).

Data set [1] addresses T1, DDR1 (Homo sapiens, UniProt Q08345). Nature of the data set: Immunoprecipitation for DDR1 phosphorylation. The format is cell-based. The arrangement: expressed in transfected cells; host or cells: G140 glioma cells stably transduced with a pLEN retroviral vector carrying DDR1a or DDR1b. To be noted: 10 μg/ml soluble. The method, then:
(§1) Immunoprecipitation for DDR1 phosphorylation: Rat tail collagen type 1 was purchased from Collaborative Biomedical Products (Bedford, Mass., USA). Cells were stimulated with 10 μg/ml soluble collagen type 1 for various periods of time. Cell lysates were prepared in RIPA buffer and immunoprecipitation was performed by incubating 1000 μg of cell extracts with DDR1 (C-20) antibody overnight at 4° C. Protein A beads (Santa Cruz Biotechnology: 50 μl) were added for 1 hr; the beads were washed three times with wash buffer and aliquots of the supernatant were subjected to SDS-PAGE. The blots were probed with monoclonal anti-phosphotyrosine antibody (4G10; Upstate Biotechnology Inc.) and visualized using the enhanced chemiluminescence (ECL) system (Amersham Pharmacia Biotech, Uppsala, Sweden). The blots were stripped and reprobed with a polyclonal antibody for DDR1 (C-20). Western Blot. The blots were probed with β-actin antibody to confirm equal loading.

The test system of data set [2] is DDR1. Nature of the data set: Immunoprecipitation for DDR1 phosphorylation. The class given is cell-based, human. To be noted: G140 parental cells; 10 μg/ml soluble. The method, then:
as §1

Another data set deals with MMP-2. Nature of the data set: Gelatin zymography of conditioned media (MMP-2 activation). The class given is cell-based, human. The method, then: Zymography: Serum-free media from G140 cell lines were stimulated with Collagen type I (10 μg/mL and collected after 24 hr. In some experiments, GM6001 (25 μM, 50 μM) was added to the media. The media was mixed with Tris-Gycine SDS Sample buffer (2×) and 20 μg of protein was subjected to 10% SDS-polyacrylamide gel electrophoresis (Invitrogen, Inc.) using 0.1% gelatin. After electrophoresis, gels were incubated in 2.5% Triton X-100 (Renaturing Buffer, Invitrogen, Inc.) for 30 minutes twice to remove SDS, and replaced with 50 mM Tris-Hcl, pH 7.5 containing 0.15 M NaCl, 10 mM CaCl2, and 0.02% NaN3 (Developing Buffer, Invitrogen, Inc.) overnight and then stained with Coomassie Blue R-250 for 30 minutes.

Another data set concerns MMP-1, MMP-2 and MMP-9. Nature of the data set: Gelatin zymography of media of DDR1 overexpressing glioma cells (Example 1). The format is cell-based, human. To be noted: 20 ug/ml; 48 hrs; serum-free medium. The method, then:
DDR1 overexpressing glioma cells reveal increased prescence of MMP-9, MMP-2 and MMP-1. Cells overexpressing DDR1a and DDR1b, DDR1 ex (extracellular domain construct) and Emmprin ex (extracellular domain construct), Ht1080 cells and human Fibroblasts, cells expressing empty vector were plated onto plates. After 24 hrs of plating, media was replaced with Serum-free medium with or without 20 ug/ml Type 1 Collagen and were incubated for 48 hrs at 37° C. Media from cells was collected and concentrated. 10 ug of media from each sample was resolved on a polyacrylamide gel (10%) containing 0.1% gelatin. Following electrophoresis, gels were washed twice with 5% Triton X-100 (30 min each). After washing, the gels were incubated for 24 h at 37° C. in the presence of 50 mM Tris-HCl, 5 mM CaCl2, 5 μM ZnCl2, pH 7.5, stained with Coomassie Brilliant Blue R-250 for 30 min and then destained. MMP-1, MMP-2 and MMP-9 production was induced by native type I collagen.

Data set [3] has as its target T1, DDR1. The data set can be described thus: DDR1 internalization, Cellomics ArrayScan. The arrangement: DDR1 is phosphorylated as a 125 kD (full length) protein. The class given is cell-based. Particulars: human Glioma derived cells; soluble, 30 minutes. The method, then: Cells are rinsed once with HBSS and fixed with 3.7% neutral buffered formalin. The fixation solution is aspirated, and the plate washed with blocking buffer, and then incubated with permeabilization buffer for 10 minutes. The cells are then stained with fluorescence conjugated secondary antibody solution containing 10 ug/ml Hoechst 33342 (to stain nuclei) for 30 minutes at room temperature. Plates are washed twice, sealed, and stored in HBSS at 4 C. Images are acquired using the ArrayScan HCS system and internalized receptors quantitated using a proprietary algorithm. The algorithm measures the appearance and intensity of fluorescent receptor aggregates inside the cell. These measurements are represented as mean cytoplasmic intensity (amount of antibody-receptor complex inside the cell) and mean cytoplasmic texture (a measure of the endosome aggregates). Antibodies that trigger receptor internalization are further evaluated. Antibodies that bind to DDR1 on human glioma cells and become internalized are of particular interest. In some instances endocytosis serves as a surrogate marker for other therapeutic biologic effects, such as growth inhibition.
DDR1 internalization. Human Glioma derived were treated with soluble collagen I for 30 minutes and then stained for DDR1. The Cellomics ArrayScan fluorescent microscope instrument was used to identify and quantitate internalized DDR1 (FIG. 8).
Target sequence in this assay (Q08345 19-913): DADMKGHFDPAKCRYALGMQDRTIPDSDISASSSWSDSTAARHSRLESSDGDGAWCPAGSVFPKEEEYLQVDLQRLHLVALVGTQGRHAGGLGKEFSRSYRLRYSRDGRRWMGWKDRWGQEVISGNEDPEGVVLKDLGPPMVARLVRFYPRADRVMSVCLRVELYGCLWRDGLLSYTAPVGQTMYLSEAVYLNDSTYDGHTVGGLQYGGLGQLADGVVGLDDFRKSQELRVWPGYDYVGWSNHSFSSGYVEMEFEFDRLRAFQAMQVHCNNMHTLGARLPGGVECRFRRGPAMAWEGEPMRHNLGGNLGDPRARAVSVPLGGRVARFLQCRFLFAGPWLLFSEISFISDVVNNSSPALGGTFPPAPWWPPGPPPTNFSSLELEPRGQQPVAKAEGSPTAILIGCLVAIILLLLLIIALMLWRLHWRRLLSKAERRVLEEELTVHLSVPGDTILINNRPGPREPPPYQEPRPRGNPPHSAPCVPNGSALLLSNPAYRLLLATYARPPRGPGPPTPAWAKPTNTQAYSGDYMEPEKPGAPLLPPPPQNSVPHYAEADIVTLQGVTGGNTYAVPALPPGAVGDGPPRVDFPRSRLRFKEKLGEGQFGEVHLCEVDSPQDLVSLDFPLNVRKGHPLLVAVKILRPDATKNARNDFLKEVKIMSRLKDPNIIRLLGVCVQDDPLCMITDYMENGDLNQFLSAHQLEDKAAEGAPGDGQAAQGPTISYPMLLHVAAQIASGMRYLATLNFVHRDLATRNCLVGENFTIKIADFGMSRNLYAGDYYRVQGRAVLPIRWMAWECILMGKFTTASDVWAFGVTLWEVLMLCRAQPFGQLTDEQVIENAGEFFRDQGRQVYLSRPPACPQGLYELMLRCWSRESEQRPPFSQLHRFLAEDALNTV

The target in data set [4] is T1, DDR1. Nature of the data set: DDR1 activation in Glioma cells, anti-phosphotyrosine western blot. The format is cell-based. To be noted: 60 minutes, 10 ug/ml (EGF 20 ng/ml). Details: DDR1 is phosphorylated as a 125 kD (full length) protein. The method, then:
DDR1 activation in Glioma cells. DDR1 Glioma cells were stimulated with 10 ug/ml of Type1 collagen, 10 ug/ml Vitrogen, 10 ug/ml Fibronectin and 20 ng/ml EGF for 60 minutes. After stimulation, cells were lysed in RIPA buffer and resolved a 10% polyacrylamide gel (10%) gel. Lane 1, Nonstimulates, Lane 2, Type 1 Collagen (10 ug/ml, Lane 3 stimulated with Vitrogen (10 μg/ml), Lane 4 stimulated with human Fibronectin (10 μg/ml), Lane 5 stimulated with EGF 20 ng/ml) for 60 minutes. Cell lysates were analysed by anti-phosphotyrosine (4G10, Upstate Biotechnology) panel a, anti-DDR1 (C-20, Santa Cruz Biotechnology Inc.) panel b, and anti-DDR1 N-terminal H-126 (SCBT) panel c by western blotting. […] DDR1 is proteolytically cleaved in response to ligand stimulation. A 52 kD soluble protein was detected in the media with H-126, a N-terminal anti-DDR1 antibody (panel c).
Target sequence in this assay (Q08345 19-913): as above

Data set [5] deals with G140-DDR1a cells. Nature of the data set: Invasion assay through Matrigel-coated Fluoroblok membranes. To be noted: 25 μM. The class given is cell-based, human. The method, then:
(§2) Migration and Invasion Assays: Migration assays were performed using 24-well fluoroblok chambers (BD Biosciences, […] pore size). Cells overexpressing DDR1a, DDR1 b, vector alone (Mock) and parental cells were trypsinized and 1×10^6 cells were suspended in DMEM plus 1% serum. 100, 000 cells were placed in the upper chambers (Becton Dickenson-Fluoroblok plates-8 μm) in triplicate. DMEM with 5% serum was added to the lower chambers. After 4 hours, cells adhering to the underside of the membrane were stained with 4 μg/ml Calcein AM (Molecular Probes, Inc.) and fluorescence emitted by cells that have migrated through the chamber to the underside of the filter was measured at λs of 530/590 nm using a CytoFlor plate reader (Series 4000, Perspective Biosystems). For Invasion Assays: Rat tail Collagen type I (BD Biosciences, 10 μg/ml), human Collagen type IV (BD Biosciences, […]), human Fibronectin (BD Biosciences, 5 μg/ml) were used to coat the underside of the chambers and Fluoroblok plates previously coated with Matrigel (BD Biosciences, 24 wells) were used. […] The cells were allowed to invade through the matrices at 37° C. for 16 hrs and stained with Calcein AM and fluorescence emitted by cells was measured at Xs of 530/590 nm using a CytoFlor plate reader (Series 4000, Perspective Biosystems). […]

In data set [6] the test system is G140-DDR1a cells. The data set can be described thus: Invasion assay through Collagen type 1 coated membranes. The class given is cell-based, human. To be noted: 25 μM. The method, then:
as §2

A further data set deals with glioma cells. Nature of the data set: Migration assay in Fluoroblok chambers. The class given is cell-based, human. To be noted: glioma cells overexpressing DDR1a. The method, then: as §2

“Also recorded” adds a separate entry of the source.

On to “Collagen type 1: Rat tail collagen type 1, DDR1 ligand used to stimulate cells”, for which, in the data set with DDR1 [1] (G140-DDR1a cells), the “time of maximal DDR1a phosphorylation” value is 60 min. For the same compound, the “time of peak phosphorylation of G140-DDR1b” value with DDR1 [1] (G140-DDR1b cells) is given as 90 min. For the same compound, the “time of peak autophosphorylation of endogenous DDR1” value with DDR1 [2] amounted to 60 min. Also, the “conversion of intermediate (64 kDa) to active form of MMP-2 (62 kDa)” value with MMP-2 (10 μg/ml, G140-DDR1a overexpressing cells) is listed as “increased conversion”. In addition, the MMP-2 activation result in the data set with MMP-2 (10 μg/ml, G140 parental, G140-DDR1b and G140 mock cells) is “did not increase”. Besides, in the data set on MMP-1, MMP-2 and MMP-9, the “MMP-1, MMP-2 and MMP-9 production” value is on record as “induced”; the “activation of pro-MMP-2 and Pro-MMP-1” value is on record as “Increased activation”. In the data set with DDR1 [3], the “DDR1 internalization (mean cytoplasmic intensity, cytoplasmic texture)” value was “induces DDR1 to appear in the cytoplasm”. Besides, the “tyrosine phosphorylation of DDR1” value with DDR1 [4] (listed as Type 1 Collagen) was “phosphorylated; also recorded: resulted in tyrosine phosphorylation of DDR1”.
Take “EGF: EGF 20 ng/ml, used to stimulate DDR1 Glioma cells”: the “tyrosine phosphorylation of DDR1” value with DDR1 [4] is recorded as “phosphorylated; also recorded: resulted in tyrosine phosphorylation of DDR1”.
In the case of `CNC(=O)[C@H](Cc1c[nH]c2ccccc12)NC(=O)[C@@H](CC(=O)NO)CC(C)C` [GM6001], the “DDR1a stimulated activation / enzymatic activity of MMP-2” value in the data set with MMP-2 (25 μm, G140-DDR1a cells, collagen 1 stimulation) is “effectively inhibited; also recorded: prevented”. For the same compound, the entries for the “DDR1a mediated invasion through matrigel” value with G140-DDR1a cells [5] and in the data set on G140-DDR1a cells [5] (listed as GM60001) were “prevented” and “inhibited”, respectively. Also, the “DDR1a mediated invasion through collagen type 1” value is reported as “prevented” in the data set on G140-DDR1a cells [6] and “inhibited” in the data set with G140-DDR1a cells [6] (listed as GM60001). The “migration of glioma cells” value in the data set on glioma cells is listed as “prevented”.
Turning to “Fibronectin: human Fibronectin, used to stimulate DDR1 Glioma cells”, the “tyrosine phosphorylation of DDR1” value with DDR1 [4] was “phosphorylated; also recorded: resulted in tyrosine phosphorylation of DDR1”.
